Experimental data: patent US20070060478A1, “Herbicidal mixtures comprising a safener” (BASF AKTIENGESELLSCHAFT, priority 2005, published 2007)

Key:
Assay type in all cases: in vivo
Conditions in all cases: 50 g/ha, applied alone
wild oat = assay: post-emergence application, control of unwanted plants (damage scale 0% to 100%)
Description: (§1) The mixtures according to the invention were applied pre- or post-emergence (foliar treatment). The herbicidal compounds of component B) and of component C) were applied in the formulation in which they are present as commercially available product.
(§2) In the case of the field trials, application was effected with the aid of a mobile plot sprayer.
(§3) The test period extended over 3 to 8 weeks, and the stands were also observed at later points in time.
(§4) Damage by the herbicidal compositions was evaluated with reference to a scale of 0% to 100% in comparison with untreated control plots. 0 means no damage and 100 means complete destruction of the plants.

green foxtail = assay: as above
Description: as §1, §2, §3, §4

pigweed = assay: as above
Description: as §1, §2, §3, §4

spring wheat = assay: post-emergence application, damage to crop plants (damage scale 0% to 100%)
Description: as §1, §2, §3, §4

durum wheat = assay: as above
Description: as §1, §2, §3, §4

Cc1c(C(=O)c2cnn(C)c2O)ccc(S(C)(=O)=O)c1C1=NOCC1 [4-[2-methyl-3-(4,5-dihydro-isoxazol-3-yl)-4-methylsulfonyl-benzoyl]-1-methyl-5-hydroxy-1H-pyrazole]
control of unwanted plants (wild oat): in an excellent manner
control of unwanted plants (green foxtail): in an excellent manner
control of unwanted plants (pigweed): in an excellent manner
damages in crop plants (spring wheat): causes damages
damages in crop plants (durum wheat): causes damages
